Results published in patent US20080249123A1, “WORTMANNIN-RAPAMYCIN CONJUGATE AND USES THEREOF” (Wyeth, priority 2007, published 2008).

Columns and labels:
MCF7 = experiment: In vitro cell culture growth assay (MTS), MCF7; assay type: cell-based, Human; settings: breast line, 3 days after drug treatment
Method: (§1) Human tumor cell lines (Table 3) include prostate lines LNCap and PC3MM2, breast lines MDA468, MCF7, renal line HTB44 (A498), colon line HCT116, and ovarian line OVCAR3. Cells were plated in 96-well culture plates.
(§2) One day following plating, the following conjugates (inhibitors) were added to cells: • Compound A 42,17′-linked wortmannin-adipate-rapamycin conjugate, diethylamine adduct • Compound B 42,17′-linked wortmannin-adipate-rapamycin conjugate. • Compound C 42,17′-linked wortmannin-succinate-rapamycin conjugate, N,N,N′-trimethyl 1,3-propanediamine adduct • Compound D 42,17′-linked wortmannin-adipate-rapamycin conjugate, diallylamine adduct • Compound E 42,17′-linked wortmannin-adipate-rapamycin conjugate, N,N,N′-trimethyl 1,3-propanediamine adduct • Compound F 42,17′-linked wortmannin-suberate-rapamycin conjugate, N,N,N′-trimethyl 1,3-propanediamine adduct.
(§3) Three days after drug treatment, viable cell densities were determined by metabolic conversion (by viable cells) of the MTS dye (3-(4,5-dimethylthiazol-2-yl)-5-(3 carboxymethoxyphenyl)-2-(4-sulfophenyl)-2H-tetrazolium, inner salt), a well established cell proliferation assay. The assays were performed using an assay kit purchased from Promega Corp. (Madison, Wis.) following the protocol supplied with the kit. The MTS assay results were read in a 96-well plate reader by measuring absorbance at 490 nm. The effect of each treatment was calculated as percent of control growth relative to the vehicle-treated cells grown in the same culture plate. The drug concentration that conferred 50% inhibition of growth was determined as IC50 (μg/mL). See, Table 3.

MDA468 = experiment: In vitro cell culture growth assay (MTS), MDA468; assay type: cell-based, Human; settings: breast line, 3 days after drug treatment
Method: as §1, §2, §3

OVCAR3 = experiment: In vitro cell culture growth assay (MTS), OVCAR3; assay type: cell-based, Human; settings: ovarian line, 3 days after drug treatment
Method: as §1, §2, §3

LNCap = experiment: In vitro cell culture growth assay (MTS), LNCap; assay type: cell-based, Human; settings: prostate line, 3 days after drug treatment
Method: as §1, §2, §3

PC3MM2 = experiment: In vitro cell culture growth assay (MTS), PC3MM2; assay type: cell-based, Human; settings: prostate line, 3 days after drug treatment
Method: as §1, §2, §3

HCT116 = experiment: In vitro cell culture growth assay (MTS), HCT116; assay type: cell-based, Human; settings: colon line, 3 days after drug treatment
Method: as §1, §2, §3

U87MG Glioma Xenografts = experiment: Xenograft tumor efficacy study, U87MG glioma in nude mice; assay type: in vivo
Method: Female nude mice at 10 weeks of age were inoculated subcutaneously on the flank with 200 μL U87MG (human gliobastoma) tumor cell suspension. U87MG cells were suspended in full growth media and were implanted at 10 million cells per mouse. Mice were staged when tumors reached approximately 200 mm^3 in sizes. Tumor bearing mice at staging (day 0) were randomized into treatment groups (n=10). […]
The growth of tumors was monitored twice a week for the duration of the experiment. Tumor size was measured using sliding vernier calipers, and the tumor mass was calculated using the formula (length×Width^2)/2.
The experimental methods for drug preparation, dosing route, regimen, etc (listed in the Table 4) were similar to the experiments presented in the Figures. The data in Table 4 and the Figures were derived from multiple and completely different experiments. Within Table 4, the data contained separate experiments.

HTB44 (A498) = experiment: In vitro cell culture growth assay (MTS), HTB44 (A498); assay type: cell-based, Human; settings: renal line, 3 days after drug treatment
Method: as §1, §2, §3

[1] = test system: HT29 colon tumor xenograph; assay type: in vivo; settings: 1× weekly for four rounds
Method: The effect of 42,17′-linked wortmannin-suberate-rapamycin conjugate, N,N,N′-trimethyl 1,3-propanediamine adduct, prepared as described in Example 4 was studied in a model of human colon cancer.
The 42,17′-linked wortmannin-suberate-rapamycin conjugate, N,N,N′-trimethyl 1,3-propanediamine adduct (▪, 15 mg/kg), rapamycin (▴, 10 mg/kg), 17-hydroxywortmannin N,N,N′-trimethyl 1,3-propanediamine adduct (▾, 5 mg/kg) and a physical combination of rapamycin (10 mg/kg) and 17-hydroxywortmannin N,N,N′-trimethyl 1,3-propanediamine adduct (5 mg/kg) were dosed 1× weekly for four rounds against a HT29 colon tumor xenograph. Vehicle served as a negative control ([…]).

[2] = test system: A498 renal cell carcinoma xenograph; experiment: In vivo anticancer efficacy in HTB44/A498 renal cell carcinoma model; settings: conjugate i.v. 1× weekly 15 mg/kg, 2 rounds; Intron A ip 3× weekly 0.5 mU, 2 weeks
Method: This study utilized a model of renal cancer performed as previously described. See, e.g., Yu K, et al., PWT-458, A Novel Pegylated-17-Hydroxywortmannin, Inhibits Phosphatidylinositol 3-Kinase Signaling and Suppresses Growth of Solid Tumors. Cancer Biol Ther. May 28, 2005; 4(5).
On day 23 the Vehicle group ([…]) was redosed with a combination 42,17′-linked wortmannin-suberate-rapamycin N,N,N′-trimethyl 1,3-propanediamine adduct (30 mg/kg) and the Avastin® drug (200 μg) for five rounds. On day 43, the 42,17′-linked wortmannin-suberate-rapamycin conjugate, N,N,N′-trimethyl 1,3-propanediamine adduct group (30 mg/kg) and the Avastin® drug group (200 μg) were redosed with a combination of 42,17′-linked wortmannin-suberate-rapamycin conjugate, N,N,N′-trimethyl 1,3-propanediamine adduct and the Avasting drug for three rounds.

## 42,17′-linked wortmannin-suberate-rapamycin conjugate, N,N,N′-trimethyl 1,3-propanediamine adduct [Compound F]
MCF7
  IC50 inhibition of tumor cell growth, MCF7: 0.24 µg/mL
MDA468
  IC50 inhibition of tumor cell growth, MDA468: 0.50 µg/mL
OVCAR3
  IC50 inhibition of tumor cell growth, OVCAR3: 6.48 µg/mL
LNCap
  IC50 inhibition of tumor cell growth, LNCap: 0.06 µg/mL
PC3MM2
  IC50 inhibition of tumor cell growth, PC2MM2: 1.00 µg/mL
HCT116
  IC50 inhibition of tumor cell growth, HCT116: 12.75 µg/mL
U87MG Glioma Xenografts; 15 mg/kg, 1× weekly for 2 rounds
  antitumor efficacy versus physical combination (FIG. 3): at least as active as the physical combination
U87MG Glioma Xenografts; single dose 30, 45 and 60 mg/kg
  efficacy after a single dose (FIG. 4): effective in the intermittent regimen
HTB44 (A498)
  IC50 inhibition of tumor cell growth, HTB44: 2.10 µg/mL
[1]; 15 mg/kg, in contrast to physical combination
  tolerability (FIG. 5): better tolerated
[1]; conjugate 15 mg/kg, combination rapamycin 10 mg/kg + 17-hydroxywortmannin adduct 5 mg/kg
  tumor reduction (FIG. 5): significant tumor reduction
[2]
  antitumor activity (FIG. 6): increased antitumor activity as compared to vehicle and Intron® A reagent alone
